Key:
IFNγ-producing cells = assay: IFNγ ELISpot of splenocytes from immunized mice; type: in vivo, C57BL/6 mice; details: for specific IFNγ-producing cells: C57BL/6 mice, two s.c. doses of 50 μg peptide with AddaVax, splenocytes 15 days after last dose, restimulated with the same peptide 18 h, ELISpot, mean; for Experimental rank: rank from the ex vivo experiments
[1] = target: MHC II (HLA) allele DRB1*01:01 (Homo sapiens, UniProt P01903+P01911, A100R/D57E/F55L/F60I/F76Y/I96L/L162R/M171V/P40L/Q125E/R42F/V115G/Y59C); assay: ProImmune REVEAL MHC-peptide binding assay; details: score 0-100 by comparison with a control T-cell epitope, 0 and 24 hours, Figure 2E
[2] = tested on: MHC II alleles DRB1*01:01, DRB1*03:01, DRB1*04:01 and DRB1*15:01; assay: Multiple-allele REVEAL score; type: binding, human; details: average of the scores of each allele; Figure 4A
Procedure: The 18 designed candidates and the additional controls were synthesized and analysed using the ProImmune REVEAL® MHC-peptide binding assay to determine their level of binding to the MHC II alleles DRB1*01:01, DRB1*03:01, DRB1*04:01 and DRB1*15:01. A multiple-allele score was measured to evaluate if the peptides improved toward multiple alleles ( Figure 4A ). Of the 18 peptides, the peptide […] could not be synthesized by the Prospector PEPscreen® technology. […] None of the peptides, including the controls, were able to trigger a signal for the allele DRB1*03:01 (see Figure 4A ). […]
A gold-standard method of rate binding experiments against the MHC II alleles was performed with the Proimmune REVEAL® binding assay. The method uses antibody-labelled peptides that emit a signal if native conformations of the complexes are detected. […]
For the single-allele binding optimization phase, 17 peptides selected were assayed together with the controls against the DRB1*01:01 allele. For the multiple-allele engineering phase, 18 P. vivax engineered epitopes were evaluated for the MHC II alleles DRB1*01:01, DRB1*03:01, DRB1*04:01 and DRB1*15:01. A multiple-allele score was calculated by averaging the scores of each allele, and by weighting each allele based on the their frequencies in the world population. […]

[3] = Influenza sequences and PADRE, Table S11

With DYDVVYWKPLAGIYK the “specific IFNγ-producing cells” value (IFNγ-producing cells) was 228 SFU/10^6 cells and the Experimental rank (IFNγ-producing cells; P. vivax sequences, Table S10) was 2.

With DYTVVYLKPLAGYDN the “specific IFNγ-producing cells” value (IFNγ-producing cells) was 54 SFU/10^6 cells and the Experimental rank (IFNγ-producing cells; P. vivax sequences, Table S10) was 5.

In the case of YSKYKKQNTLKAAT, the “REVEAL binding score, performance in words” value [1] is reported as “much superior to the original peptide sequence, and even to the PADRE control”, the “specific IFNγ-producing cells” value (IFNγ-producing cells) is reported as 473 SFU/10^6 cells and the Experimental rank (IFNγ-producing cells; [3]) is reported as 2.

In the case of VYDVVYLKPLAGCYK, the “specific IFNγ-producing cells” value (IFNγ-producing cells) is reported as 145 SFU/10^6 cells and the Experimental rank (IFNγ-producing cells; P. vivax sequences, Table S10) is reported as 3.

For “YPKYVKQNTLKLAT [Influenza A virus peptide from the Hemagglutinin antigen, reference compound]”, the “specific IFNγ-producing cells” value (IFNγ-producing cells) was 463 SFU/10^6 cells and the Experimental rank (IFNγ-producing cells; [3]) was 3.

In the case of DYTVVYLKPLAGYDH, the “specific IFNγ-producing cells” value (IFNγ-producing cells) is reported as 127 SFU/10^6 cells, the Experimental rank (IFNγ-producing cells; P. vivax sequences, Table S10) is reported as 4 and the “Multiple-allele REVEAL score, in words” value [2] is reported as “superior to the PADRE epitope”.

Work on AKFVAAWTLKAAA [reference compound] yielded an Experimental rank (IFNγ-producing cells; [3]) of 1.

With DYDVVYLKPLAGMYK [reference compound] the “specific IFNγ-producing cells” value (IFNγ-producing cells) was 295 SFU/10^6 cells and the Experimental rank (IFNγ-producing cells; P. vivax sequences, Table S10) was 1.

— publication PMC9094701, “Multiple-Allele MHC Class II Epitope Engineering by a Molecular Dynamics-Based Evolution Protocol” (Frontiers in Immunology, 2022)
